Measurements from EP4424303A1, “LENVATINIB COMPOSITION WITH IMPROVED BIOAVAILABILITY” (STADA ARZNEIMITTEL AG, priority 2023, dated 2024).
Counter-ions that a name gives are not always drawn.

Assay: Saturation (equilibrium) solubility by shake-flask technique
Assay type: physicochemical
Settings: thermodynamic from solid, 37 °C ± 1 °C
Method: The equilibrium solubility of Lenvatinib mesylate in different dissolution media at 37 °C ± 1 °C was measured by shake-flask technique. The dissolution media were prepared according to USP. The pH for each test solution was measured after the addition of the drug substance and at the end of the equilibrium solubility study.
1. Table 1: saturation solubility of Lenvatinib mesylate depending on pH

solubility (USP dissolution medium pH 2.0, simulated gastric fluid, pH 2.0, Initial pH 2.0, Final pH 1.88): 2620 µg/mL
solubility (USP dissolution medium pH 4.5, aqueous buffer, pH 4.5, Initial pH 4.52, Final pH 4.38): 13 µg/mL
solubility (USP dissolution medium pH 5.5, aqueous buffer, pH 5.5, Initial pH 5.49, Final pH 5.25): 3 µg/mL
solubility (USP dissolution medium pH 6.8, aqueous buffer, pH 6.8, Initial pH 6.82, Final pH 6.68): 1 µg/mL
solubility (simulated gastric fluid, 0.1N HCl, Initial pH 1.1, Final pH 1.23): 1830 µg/mL
Compound: COc1cc2nccc(Oc3ccc(NC(=O)NC4CC4)c(Cl)c3)c2cc1C(N)=O [Lenvatinib mesylate, 4-[3-chloro-4-(cyclopropylaminocarbonyl)aminophenoxy]-7-methoxy-6-quinolinecarboxamide]
